In ChEMBL document CHEMBL3612016, “1,4-Disubstituted aromatic piperazines with high 5-HT2A/D2 selectivity: Quantitative structure-selectivity investigations, docking, synthesis and biological evaluation” (Bioorg Med Chem, 2015):

The compounds below were run against T1, D(4) dopamine receptor (Homo sapiens, UniProt P21917) (assay: biochemical). Conditions: not given; call rule not given here.
T1 sequence (P21917 whole entry): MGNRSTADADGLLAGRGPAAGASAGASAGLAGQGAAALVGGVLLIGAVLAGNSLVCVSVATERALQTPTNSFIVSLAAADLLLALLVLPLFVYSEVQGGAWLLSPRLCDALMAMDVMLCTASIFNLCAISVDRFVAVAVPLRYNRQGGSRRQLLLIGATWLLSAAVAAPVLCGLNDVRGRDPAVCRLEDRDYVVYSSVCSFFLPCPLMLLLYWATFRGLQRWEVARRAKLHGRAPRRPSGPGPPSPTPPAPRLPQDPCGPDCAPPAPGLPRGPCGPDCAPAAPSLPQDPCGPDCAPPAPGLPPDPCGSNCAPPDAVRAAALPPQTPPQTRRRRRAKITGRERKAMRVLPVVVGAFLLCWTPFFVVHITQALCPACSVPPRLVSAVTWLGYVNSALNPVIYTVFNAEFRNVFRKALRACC
Type: cell-based, CHO

SMILES	Ki
COc1ccccc1N1CCN(CCc2cn(-c3ccn4ncc(C=O)c4c3)nn2)CC1	98 nM
O=Cc1cnn2ccc(-n3cc(CCN4CCN(c5cccc(Cl)c5Cl)CC4)nn3)cc12	3000 nM
Clc1cccc(N2CCN(CCCCc3cn(-c4ccn5nccc5c4)nn3)CC2)c1Cl	76 nM
Clc1cccc(N2CCN(CCc3cn(-c4ccn5nccc5c4)nn3)CC2)c1Cl	180 nM
Clc1cccc(N2CCN(CCCc3cn(-c4ccn5nccc5c4)nn3)CC2)c1Cl	42 nM
COc1ccccc1N1CCN(CCCc2cn(-c3ccn4nccc4c3)nn2)CC1	37 nM
O=Cc1cnn2ccc(-n3cc(CCCCN4CCN(c5cccc(Cl)c5Cl)CC4)nn3)cc12	1400 nM
O=Cc1cnn2ccc(-n3cc(CCCN4CCN(c5cccc(Cl)c5Cl)CC4)nn3)cc12	130 nM

Each compound was assayed against D(1A) dopamine receptor (Homo sapiens, UniProt P21728) (assay: biochemical). Conditions: not given.
Sequence of D(1A) dopamine receptor (P21728 whole entry): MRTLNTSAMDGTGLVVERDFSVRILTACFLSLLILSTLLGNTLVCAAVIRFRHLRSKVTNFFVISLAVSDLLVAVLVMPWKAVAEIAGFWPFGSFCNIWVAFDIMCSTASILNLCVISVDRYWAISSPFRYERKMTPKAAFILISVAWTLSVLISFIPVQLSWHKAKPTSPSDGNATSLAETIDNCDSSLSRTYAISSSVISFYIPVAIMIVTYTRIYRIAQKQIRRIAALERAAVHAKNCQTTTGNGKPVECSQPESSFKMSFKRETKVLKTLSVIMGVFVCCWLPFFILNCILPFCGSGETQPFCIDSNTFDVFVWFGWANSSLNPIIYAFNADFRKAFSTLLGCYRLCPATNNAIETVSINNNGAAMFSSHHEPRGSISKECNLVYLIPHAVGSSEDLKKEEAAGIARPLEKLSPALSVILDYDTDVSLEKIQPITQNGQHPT
Type: cell-based, CHO

SMILES	Ki
COc1ccccc1N1CCN(CCc2cn(-c3ccn4ncc(C=O)c4c3)nn2)CC1	620 nM
O=Cc1cnn2ccc(-n3cc(CCN4CCN(c5cccc(Cl)c5Cl)CC4)nn3)cc12	160 nM
Clc1cccc(N2CCN(CCCCc3cn(-c4ccn5nccc5c4)nn3)CC2)c1Cl	110 nM
Clc1cccc(N2CCN(CCc3cn(-c4ccn5nccc5c4)nn3)CC2)c1Cl	120 nM
Clc1cccc(N2CCN(CCCc3cn(-c4ccn5nccc5c4)nn3)CC2)c1Cl	110 nM
COc1ccccc1N1CCN(CCCc2cn(-c3ccn4nccc4c3)nn2)CC1	1700 nM
O=Cc1cnn2ccc(-n3cc(CCCCN4CCN(c5cccc(Cl)c5Cl)CC4)nn3)cc12	1500 nM
O=Cc1cnn2ccc(-n3cc(CCCN4CCN(c5cccc(Cl)c5Cl)CC4)nn3)cc12	210 nM

What follows are compounds tested against T2, D(2) dopamine receptor (Homo sapiens, UniProt P14416) (assay: biochemical). Conditions: not given.
T2 sequence (P14416 whole entry): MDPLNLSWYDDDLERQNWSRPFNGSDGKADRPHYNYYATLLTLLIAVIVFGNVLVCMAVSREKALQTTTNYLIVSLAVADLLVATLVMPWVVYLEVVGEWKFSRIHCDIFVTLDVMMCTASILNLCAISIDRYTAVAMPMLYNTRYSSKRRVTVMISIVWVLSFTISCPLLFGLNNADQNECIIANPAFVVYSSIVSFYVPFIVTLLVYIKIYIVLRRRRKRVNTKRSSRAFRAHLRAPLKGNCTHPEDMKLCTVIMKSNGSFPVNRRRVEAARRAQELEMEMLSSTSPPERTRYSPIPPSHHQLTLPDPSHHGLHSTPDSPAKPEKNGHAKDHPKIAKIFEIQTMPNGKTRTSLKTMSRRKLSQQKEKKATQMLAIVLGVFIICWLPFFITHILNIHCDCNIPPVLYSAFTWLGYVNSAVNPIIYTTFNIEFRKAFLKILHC
Type: cell-based, CHO

SMILES	Ki
COc1ccccc1N1CCN(CCc2cn(-c3ccn4ncc(C=O)c4c3)nn2)CC1	9.4 nM
O=Cc1cnn2ccc(-n3cc(CCN4CCN(c5cccc(Cl)c5Cl)CC4)nn3)cc12	8 nM
Clc1cccc(N2CCN(CCCCc3cn(-c4ccn5nccc5c4)nn3)CC2)c1Cl	7.3 nM
Clc1cccc(N2CCN(CCc3cn(-c4ccn5nccc5c4)nn3)CC2)c1Cl	10 nM
Clc1cccc(N2CCN(CCCc3cn(-c4ccn5nccc5c4)nn3)CC2)c1Cl	54 nM
COc1ccccc1N1CCN(CCCc2cn(-c3ccn4nccc4c3)nn2)CC1	81 nM
O=Cc1cnn2ccc(-n3cc(CCCCN4CCN(c5cccc(Cl)c5Cl)CC4)nn3)cc12	51 nM
O=Cc1cnn2ccc(-n3cc(CCCN4CCN(c5cccc(Cl)c5Cl)CC4)nn3)cc12	3.8 nM

Each compound was assayed against D(3) dopamine receptor (Homo sapiens, UniProt P35462) (assay: biochemical). Conditions: not given.
Sequence of D(3) dopamine receptor (P35462 whole entry): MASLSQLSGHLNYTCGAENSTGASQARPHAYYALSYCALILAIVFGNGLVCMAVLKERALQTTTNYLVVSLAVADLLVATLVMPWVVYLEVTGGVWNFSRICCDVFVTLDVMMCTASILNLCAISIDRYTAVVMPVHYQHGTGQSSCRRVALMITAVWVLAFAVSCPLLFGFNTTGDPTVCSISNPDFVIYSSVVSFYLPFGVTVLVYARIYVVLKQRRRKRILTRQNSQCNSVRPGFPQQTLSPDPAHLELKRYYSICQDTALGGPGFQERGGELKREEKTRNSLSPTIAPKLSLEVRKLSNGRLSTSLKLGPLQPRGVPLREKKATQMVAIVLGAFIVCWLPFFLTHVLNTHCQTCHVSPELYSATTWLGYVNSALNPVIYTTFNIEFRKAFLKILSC
Type: cell-based, CHO

SMILES	Ki
COc1ccccc1N1CCN(CCc2cn(-c3ccn4ncc(C=O)c4c3)nn2)CC1	8.5 nM
O=Cc1cnn2ccc(-n3cc(CCN4CCN(c5cccc(Cl)c5Cl)CC4)nn3)cc12	32 nM
Clc1cccc(N2CCN(CCCCc3cn(-c4ccn5nccc5c4)nn3)CC2)c1Cl	0.31 nM
Clc1cccc(N2CCN(CCc3cn(-c4ccn5nccc5c4)nn3)CC2)c1Cl	2.2 nM
Clc1cccc(N2CCN(CCCc3cn(-c4ccn5nccc5c4)nn3)CC2)c1Cl	8.5 nM
COc1ccccc1N1CCN(CCCc2cn(-c3ccn4nccc4c3)nn2)CC1	77 nM
O=Cc1cnn2ccc(-n3cc(CCCCN4CCN(c5cccc(Cl)c5Cl)CC4)nn3)cc12	4.4 nM
O=Cc1cnn2ccc(-n3cc(CCCN4CCN(c5cccc(Cl)c5Cl)CC4)nn3)cc12	12 nM

The compounds below were run against 5-hydroxytryptamine receptor 2A (Homo sapiens, UniProt P28223) (assay: biochemical). Conditions: not given.
Sequence of 5-hydroxytryptamine receptor 2A (P28223 whole entry): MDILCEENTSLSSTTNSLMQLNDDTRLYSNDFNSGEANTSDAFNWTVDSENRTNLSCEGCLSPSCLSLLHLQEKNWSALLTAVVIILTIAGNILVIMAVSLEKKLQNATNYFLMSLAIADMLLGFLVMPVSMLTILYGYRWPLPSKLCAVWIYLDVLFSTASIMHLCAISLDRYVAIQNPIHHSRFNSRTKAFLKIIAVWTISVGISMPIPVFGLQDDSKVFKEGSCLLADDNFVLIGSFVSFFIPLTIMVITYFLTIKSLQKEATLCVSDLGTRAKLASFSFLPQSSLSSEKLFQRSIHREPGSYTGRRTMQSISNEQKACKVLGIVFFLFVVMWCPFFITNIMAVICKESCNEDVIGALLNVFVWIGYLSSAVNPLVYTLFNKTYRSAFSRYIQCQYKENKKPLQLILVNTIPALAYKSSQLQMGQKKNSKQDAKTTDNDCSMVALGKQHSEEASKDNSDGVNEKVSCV
Type: cell-based, HEK293

SMILES	Ki
COc1ccccc1N1CCN(CCc2cn(-c3ccn4ncc(C=O)c4c3)nn2)CC1	89 nM
O=Cc1cnn2ccc(-n3cc(CCN4CCN(c5cccc(Cl)c5Cl)CC4)nn3)cc12	50 nM
Clc1cccc(N2CCN(CCCCc3cn(-c4ccn5nccc5c4)nn3)CC2)c1Cl	0.64 nM
COc1ccccc1N1CCN(CCCCNC(=O)c2nnn(Cc3ccccc3Br)c2C)CC1	150 nM
Clc1cccc(N2CCN(CCc3cn(-c4ccn5nccc5c4)nn3)CC2)c1Cl	7.1 nM
Clc1cccc(N2CCN(CCCc3cn(-c4ccn5nccc5c4)nn3)CC2)c1Cl	5.3 nM
COc1ccccc1N1CCN(CCCc2cn(-c3ccn4nccc4c3)nn2)CC1	84 nM
Cc1c(C(=O)NCCCCN2CCN(c3cccc(Cl)c3Cl)CC2)nnn1Cc1ccccc1	7.4 nM
COc1ccccc1N1CCN(CCCCCNC(=O)c2cc3ccccn3n2)CC1	220 nM
COc1ccccc1N1CCN(CCCCNC(=O)c2nnn(Cc3ccccc3)c2C)CC1	620 nM
CCCc1c(C(=O)NCCCCN2CCN(c3ccccc3OC)CC2)nnn1Cc1ccc(OC)cc1	29 nM
COc1ccccc1N1CCN(CCNC(=O)c2cnn3ccccc23)CC1	580 nM
COc1ccccc1N1CCN(CCCCCNC(=O)c2nnn(Cc3ccccc3Br)c2C)CC1	41 nM
O=Cc1cnn2ccc(-n3cc(CCCCN4CCN(c5cccc(Cl)c5Cl)CC4)nn3)cc12	15 nM
CCCc1c(C(=O)NCCCCCN2CCN(c3ccccc3OC)CC2)nnn1Cc1ccccc1Br	62 nM
COc1ccccc1N1CCN(CCCCCNC(=O)c2cnn3ccccc23)CC1	130 nM
COc1ccc(Cn2nnc(C(=O)NCCCCN3CCN(c4ccccc4OC)CC3)c2C)cc1	140 nM
CCCc1c(C(=O)NCCCCN2CCN(c3cccc(Cl)c3Cl)CC2)nnn1Cc1ccccc1	2.5 nM
COc1ccccc1N1CCN(CCCCCNC(=O)c2nnn(Cc3ccccc3)c2C)CC1	140 nM
O=Cc1cnn2ccc(-n3cc(CCCN4CCN(c5cccc(Cl)c5Cl)CC4)nn3)cc12	6.9 nM
CCCc1c(C(=O)NCCCCN2CCN(c3ccccc3OC)CC2)nnn1Cc1ccccc1	110 nM
O=C(NCCCCN1CCN(c2cccc(Cl)c2Cl)CC1)c1cc2ccccc2[nH]1	31 nM
CCCc1c(C(=O)NCCCCN2CCN(c3ccccc3OC)CC2)nnn1Cc1ccccc1Br	44 nM
COc1ccc(Cn2nnc(C(=O)NCCCCCN3CCN(c4ccccc4OC)CC3)c2C)cc1	93 nM
COc1ccc(Cn2nnc(C(=O)NCCCCCN3CCN(c4cccc(Cl)c4Cl)CC3)c2C)cc1	3.2 nM
COc1ccccc1N1CCN(CCCNC(=O)c2cc3ccccn3n2)CC1	560 nM

These compounds were tested against T2, D(2) dopamine receptor (assay: not given). Conditions: hek293.
Type: cell-based

SMILES	EC50
COc1ccccc1N1CCN(CCc2cn(-c3ccn4ncc(C=O)c4c3)nn2)CC1	Not Active
O=Cc1cnn2ccc(-n3cc(CCN4CCN(c5cccc(Cl)c5Cl)CC4)nn3)cc12	Not Active
Clc1cccc(N2CCN(CCCCc3cn(-c4ccn5nccc5c4)nn3)CC2)c1Cl	Not Active
Clc1cccc(N2CCN(CCc3cn(-c4ccn5nccc5c4)nn3)CC2)c1Cl	Not Active
Clc1cccc(N2CCN(CCCc3cn(-c4ccn5nccc5c4)nn3)CC2)c1Cl	Not Active
COc1ccccc1N1CCN(CCCc2cn(-c3ccn4nccc4c3)nn2)CC1	Not Active
O=Cc1cnn2ccc(-n3cc(CCCCN4CCN(c5cccc(Cl)c5Cl)CC4)nn3)cc12	Not Active
O=Cc1cnn2ccc(-n3cc(CCCN4CCN(c5cccc(Cl)c5Cl)CC4)nn3)cc12	Not Active

Biological target: T2, D(2) dopamine receptor
Assay: biochemical
Type: cell-based, CHO
Conditions: not given
Remark: another data set of the same source

SMILES	Ki
COc1ccccc1N1CCN(CCc2cn(-c3ccn4ncc(C=O)c4c3)nn2)CC1	18 nM
O=Cc1cnn2ccc(-n3cc(CCN4CCN(c5cccc(Cl)c5Cl)CC4)nn3)cc12	11 nM
Clc1cccc(N2CCN(CCCCc3cn(-c4ccn5nccc5c4)nn3)CC2)c1Cl	23 nM
COc1ccccc1N1CCN(CCCCNC(=O)c2nnn(Cc3ccccc3Br)c2C)CC1	17 nM
Clc1cccc(N2CCN(CCc3cn(-c4ccn5nccc5c4)nn3)CC2)c1Cl	22 nM
Clc1cccc(N2CCN(CCCc3cn(-c4ccn5nccc5c4)nn3)CC2)c1Cl	130 nM
COc1ccccc1N1CCN(CCCc2cn(-c3ccn4nccc4c3)nn2)CC1	140 nM
Cc1c(C(=O)NCCCCN2CCN(c3cccc(Cl)c3Cl)CC2)nnn1Cc1ccccc1	14 nM
COc1ccccc1N1CCN(CCCCNC(=O)c2nnn(Cc3ccccc3)c2C)CC1	35 nM
CCCc1c(C(=O)NCCCCN2CCN(c3ccccc3OC)CC2)nnn1Cc1ccc(OC)cc1	7.1 nM
COc1ccccc1N1CCN(CCCCCNC(=O)c2nnn(Cc3ccccc3Br)c2C)CC1	0.58 nM
O=Cc1cnn2ccc(-n3cc(CCCCN4CCN(c5cccc(Cl)c5Cl)CC4)nn3)cc12	110 nM
CCCc1c(C(=O)NCCCCCN2CCN(c3ccccc3OC)CC2)nnn1Cc1ccccc1Br	0.91 nM
CCCc1c(C(=O)NCCCCN2CCN(c3cccc(Cl)c3Cl)CC2)nnn1Cc1ccccc1	6.4 nM
COc1ccccc1N1CCN(CCCCCNC(=O)c2nnn(Cc3ccccc3)c2C)CC1	2.5 nM
O=Cc1cnn2ccc(-n3cc(CCCN4CCN(c5cccc(Cl)c5Cl)CC4)nn3)cc12	6.7 nM
CCCc1c(C(=O)NCCCCN2CCN(c3ccccc3OC)CC2)nnn1Cc1ccccc1	6.4 nM
CCCc1c(C(=O)NCCCCN2CCN(c3ccccc3OC)CC2)nnn1Cc1ccccc1Br	3 nM
COc1ccc(Cn2nnc(C(=O)NCCCCCN3CCN(c4ccccc4OC)CC3)c2C)cc1	2.7 nM
COc1ccc(Cn2nnc(C(=O)NCCCCCN3CCN(c4cccc(Cl)c4Cl)CC3)c2C)cc1	1.5 nM

What follows are compounds tested against T2, D(2) dopamine receptor (assay: not given). Conditions: not given.

SMILES	EC50
COc1ccccc1N1CCN(CCc2cn(-c3ccn4ncc(C=O)c4c3)nn2)CC1	4370 nM
O=Cc1cnn2ccc(-n3cc(CCN4CCN(c5cccc(Cl)c5Cl)CC4)nn3)cc12	3550 nM
Clc1cccc(N2CCN(CCc3cn(-c4ccn5nccc5c4)nn3)CC2)c1Cl	1100 nM
O=Cc1cnn2ccc(-n3cc(CCCCN4CCN(c5cccc(Cl)c5Cl)CC4)nn3)cc12	1860 nM
O=Cc1cnn2ccc(-n3cc(CCCN4CCN(c5cccc(Cl)c5Cl)CC4)nn3)cc12	955 nM

Biological target: T2, D(2) dopamine receptor
Assay: not given
Type: functional, cell-based, HEK293
Conditions: not given
Remark: another data set of the same source

SMILES	EC50
COc1ccccc1N1CCN(CCc2cn(-c3ccn4ncc(C=O)c4c3)nn2)CC1	550 nM
O=Cc1cnn2ccc(-n3cc(CCN4CCN(c5cccc(Cl)c5Cl)CC4)nn3)cc12	200 nM
Clc1cccc(N2CCN(CCCCc3cn(-c4ccn5nccc5c4)nn3)CC2)c1Cl	741 nM
Clc1cccc(N2CCN(CCc3cn(-c4ccn5nccc5c4)nn3)CC2)c1Cl	479 nM
Clc1cccc(N2CCN(CCCc3cn(-c4ccn5nccc5c4)nn3)CC2)c1Cl	1120 nM
COc1ccccc1N1CCN(CCCc2cn(-c3ccn4nccc4c3)nn2)CC1	977 nM
O=Cc1cnn2ccc(-n3cc(CCCCN4CCN(c5cccc(Cl)c5Cl)CC4)nn3)cc12	692 nM
O=Cc1cnn2ccc(-n3cc(CCCN4CCN(c5cccc(Cl)c5Cl)CC4)nn3)cc12	191 nM
